Laboratory results from US20080118943A1 (priority 2005, published 2008).

Experiments:
[1] = system: L. plantarum strains (wild type, pNZ7019, pNZ7021); test: Growth rate of L. plantarum strains on CDM with folate dependent metabolites and methotrexate; assay type: cell-based, Lactobacillus plantarum; details: 0 to 2.5 mg/L MTX
Description: (§1) Wild type L. plantarum WCFS1 strains and its derivatives were grown at 37° C. on Chemically Defined Media (CDM), containing 19 g/L β-phosphoglycerate (6) or modified CDM. In this modified CDM, glycine, inosine, orotic acid, thymidine, guanine, adenine, uracil and xantine were omitted from the normal CDM. Additionally […] chloroamphenicol was added to all the media used. Methotrexate (Sigma, […]) was added to both types of CDM, in concentrations ranging from 0 to 10 mg/l.
(§2) Microtiter plates were used to determine the growth rate of the three L. plantarum strains harbouring the different vectors. The growth of the three strains was monitored in a 96 well microtiter plate for 35 hours using a spectrophotometer (SPECTRAmax®, Molecular Devices, Sunnyvale, Calif., USA). The growth was tested on the two types of media, and each construct was analyzed in triplicate on both media for the following MTX concentrations: 0, 0.3125, 0.625, 1.25 and 2.5 mg/L.

[2] = system: wild type L. plantarum WCFS1; test: Growth rate of wild type L. plantarum on modified CDM (lacking folate dependent metabolites) with methotrexate; assay type: cell-based, Lactobacillus plantarum; details: for growth inhibition of the wild type strain: modified CDM
Description: as §1, §2

L. lactis = details: cited from earlier work
[3] = system: folate overproducing L. plantarum strains; test: Growth rate of folate overproducing L. plantarum strains (pNZ7019, pNZ7021) on modified CDM with methotrexate; assay type: cell-based, Lactobacillus plantarum; details: 2.5 mg/L MTX
Description: as §1, §2

Row | Compound | growth inhibition in the presence of folate dependent metabolites [1] | growth inhibition of the wild type strain ([2]; 2.5 mg/L MTX) | growth rate (μ) of the wild type ([2]; 1.25, 1.5, 2.0 and 2.5 mg/l MTX, medium lacking folate dependent metabolites) [h⁻¹] | growth inhibition of the wild type strain ([2]; between 0 and 2.5 mg/L MTX) | sensitivity to antifolate (L. lactis) | growth of the folate overproducing strains [3]
1 | CN(Cc1cnc2nc(N)nc(N)c2n1)c1ccc(C(=O)N[C@@H](CCC(=O)O)C(=O)O)cc1 [MTX, methotrexate] | none of the tested strains was significantly inhibited | complete growth inhibition | < 0.05 | dose dependent growth inhibition | insensitive | grew well
2 | COc1cc(Cc2cnc(N)nc2N)cc(OC)c1OC [trimethoprim] |  |  |  |  | insensitive | 
